Assay results as given in PubChem BioAssay (NCI).
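Protocol summary: plate cells (96-well), add compound at 5 concentrations, incubate 48 h, interpolate endpoints linearly. At the GI50, growth is halved. Definition used: TGI = concentration required for complete inhibition of growth.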

Legend:
Test in all cases: DTP human tumour cell line panel, 48 h
[1] = test system: HCT-15 colon
[2] = test system: 786-0 renal
[3] = test system: OVCAR-3 ovarian
[4] = test system: A498 renal
[5] = test system: IGROV1 ovarian
[6] = test system: SNB-19 CNS
[7] = test system: CAKI-1 renal
[8] = test system: NCI-H460 lung

SMILES	TGI [1] [µM]	TGI [2] [µM]	TGI [3] [µM]	TGI [4] [µM]	TGI [5] [µM]	TGI [6] [µM]	TGI [7] [µM]	TGI [8] [µM]	GI50 [2] [µM]	GI50 [3] [µM]	GI50 [4] [µM]	GI50 [5] [µM]	GI50 [6] [µM]	GI50 [8] [µM]	GI50 [7] [µM]	GI50 [1] [µM]
N#CNc1nc(C(=O)Nc2ccc(Cl)cc2)cc(-c2ccccc2)n1	> 100	> 100	> 100	> 100	> 100	> 100	> 100									
O=C(O)C1=C(Cl)c2ccccc2S1(=O)=O	> 100	> 100			> 100	> 100	> 100	> 100								
CN(/C(=N\O)c1ccccc1)c1ccccc1		89	59.2			90.3	> 100	> 100								
O=C(Nc1cc([N+](=O)[O-])cc([N+](=O)[O-])c1)OC1C2CCC1C1OC1C2 (configuration not stated)	> 50	> 50	> 50	> 50	> 50	> 50		> 50								
O=C(Cc1nc2ccccc2s1)C(=O)Nc1ccc(Cl)cc1Cl	> 100	> 100	> 100		> 100	> 100		> 100								
N=C(N)Cn1cnc2ccccc21	> 100	> 100	> 100	> 100	> 100	> 100		> 100								
CC(=O)[CH-]C(=O)c1ccccc1.CC(=O)[CH-]C(=O)c1ccccc1.CC12CC3(C)CC(C)(C1)CC([O-])(C2)C3.CC[O-].[Ti+4]		> 100	> 100	44.5	> 100	45.2	> 100	46	29.3	25.6	21.3	40.9	20.9	16.8	42.9	
CCC[CH2][Sn]1([CH2]CCC)[O]CC([CH2][Sn]([c]2ccccc2)([c]2ccccc2)[c]2ccccc2)[O]1 (configuration not stated)	26.4	24.5	29.9		29.2	28.6			11.8	14.9		15.2	15.1			13.2
CN(Cc1ccccc1)c1nc(=[N+](C)C)ss1	> 100	> 100		> 100	> 100	> 100	> 100	> 100								
CC(=O)NNc1nc(C)c(C(/C=C/c2ccc(Cl)cc2)=N/NC(=S)NN)s1	> 100	> 100		> 100	> 100	> 100	> 100	> 100								
CCc1ccccc1NC(=O)C1=C(C)NC(C)=C(C(=O)Nc2ccccc2CC)C1c1ccc(NC(C)=O)cc1		> 100	> 100		> 100	> 100	> 100	> 100								
O/N=C1/C(=C/c2ccccc2)CCCC1C(NO)c1ccccc1 (configuration not stated)	> 100	> 100	> 100	> 100	> 100	> 100		> 100								
COC(=O)C(C(=O)C(=O)Nc1ccc(C)cc1C)c1nc2ccc([N+](=O)[O-])cc2[nH]c1=O (configuration not stated)	> 100	> 100		> 100	> 100	> 100	> 100	> 100								
CC(=O)Oc1cc(OC(C)=O)c2cc3c(cc2c1OC(C)=O)C(=O)C1(CCCC1)C3=O	39.3	31.5	34.5		32.4		25.2	33.1								
NC(=O)N/N=C1/CCCC/C1=C\c1ccccc1	> 100	> 100	> 100	> 100	> 100		> 100	> 100								
CCCCCCCCCCCCCCCCCCOCC1(COP(=O)([O-])OCC[N+](C)(C)C)CCCO1 (configuration not stated)		13.6	15.7	11.8	6.63	11.1		3.23								
CC(C)(C)[Si](Nc1ccccc1)(c1ccccc1)c1ccccc1	28.4	28.4	27.4	31.3	28.3	27.1		37.7								
C[C@@]1(CBr)C[C@@](C)(/C=C/Cl)[C@@H](Cl)C[C@H]1Cl		27	22.8	30.8	29	27.1	31.7									
COc1cc(CCC(=O)NS(=O)(=O)c2ccccc2)cc(OC)c1OC		> 100	> 100	> 100	> 100	> 100	> 100	> 100								
COc1cc(C(=C2SCCS2)c2nccc3cc(OC)c(OC)cc23)c([N+](=O)[O-])cc1OC		> 100	> 100	> 100	> 100	> 100										
C/C(CC(=O)Nc1ccc(NC(=O)/C(C)=N/NS(=O)(=O)c2ccc(C)cc2)cc1)=N\NS(=O)(=O)c1ccc(C)cc1	> 100	> 100	> 100	> 100	> 100		> 100	> 100								
